Assay results: patent US8057992B2, “Methods for identifying peptides that bind to intact oocytes” (Auburn University, priority 2007, dated 2011)
Entries after “also recorded” stand apart in the source; their conditions may differ. Ends that are not written are not given here.

Legend:
[1] = system: ZP proteins on intact canine oocytes; test: Phage display selection of ZP-binding peptides on intact canine oocytes; conditions: four rounds of selection, 1000 intact canine oocytes per round, 7-mer and 12-mer phage display libraries
Procedure: The phage display procedure developed herein utilizes intact oocytes surrounded by ZP proteins. In this procedure, ZP proteins remain on oocytes in their native conformation, unlike previously published selection protocols that use denatured ZPs immobilized on an artificial solid support. The procedure involves incubating isolated oocytes with a phage display library followed by washing of unbound phage. Oocytes are lysed, and bound phage are amplified in bacterial cultures. Enrichment in ZP-binding phage clones is achieved in four subsequent selection rounds, after which selected phage DNAs are sequenced and translated to obtain peptide sequences.
Collection of dog ova: Oocytes were isolated from dog ovaries obtained from spay/neuter clinics. All ovaries were collected from bitches (six months of age and older) undergoing elective ovariohysterectomy. Approximately 20-30 oocytes from each pair of ovaries were isolated. Ova were washed extensively, retrieved by visual inspection at 12× magnification, washed two additional times, pooled and frozen before the use. Oocytes isolated from dog ovaries were characterized by microscopic evaluations.
Identification of peptides that bind to ZP proteins on intact canine oocytes: Peptides that specifically bind to ZP proteins were identified by utilizing two phage display libraries purchased from New England BioLabs, including: PhD-C7C Peptide 7-mer Library Kit and PhD-12 Peptide Library Kit. The utilized approach selects peptides that mimic the sperm antigen at the level of the ZP-sperm binding (FIG. 2).
Four rounds of selection were performed using each library. For each selection round, an aliquot of the primary library was diluted in a blocking buffer and incubated with 1000 intact canine oocytes surrounded by ZP. After incubation, phages expressing peptides not bound to oocytes were washed away and the bound phages were recovered by lysis. […] Peptide sequences from phage display selection on intact dog oocytes surrounded by ZP included: LNSFLRS (SEQ ID NO:1), LSTALRS (SEQ ID NO:2), SSWYRGA (SEQ ID NO:3), TGTSTRA (SEQ ID NO:4), YLPIYTIPSMVY (SEQ ID NO:5), NNQSPILKLSIH (SEQ ID NO:6), and AHPNTAPIHPKF (SEQ ID NO:7). Based on the peptide sequences, the following five antigens were prepared: antigen 1—YLPVGGLRRIGG (SEQ ID NO:14), antigen 2—CLNSFLRSC-KGG (SEQ ID NO:9), antigen 3—YLPIYTIPSMVY-GG (SEQ ID NO:12), antigen 4—NNQSPILKLSIH-GG (SEQ ID NO:13), and antigen 5—CSSWYRGAC-KGGY (SEQ ID NO:11).

[2] = system: dogs; test: Peptide ELISA of serum from immunized dogs for anti-peptide antibodies; type: in vivo, dog
Procedure: Immunization of dogs with ZP-binding peptides conjugated to a carrier protein: The peptides were synthesized by Global Peptide Services (Fort Collins, Colo.) at a yield of 10-20 mg having 95% purity. Two of the selected peptides were 7 amino acids long and the other two were 12 amino acids long. Antigen was taken from the literature (6) to serve as a control. To assure maximum immunogenicity, the peptides were conjugated to keyhole-limpet hemocyanin (KLH), a carrier protein. For vaccinations, the antigen was formulated to include: 250 μg of KLH conjugated peptide mixed with aluminum hydroxide adjuvant (Alhydrogel 85) and 100 μg canine specific immunostimulatory oligodeoxynucleotide (CpG). Four of the selected peptides and one control peptide were injected intramusculary into each dog (one dog/peptide). Booster immunizations were given twice to achieve high titer antisera. Each immunized dog served as his/her own control since none were expected to have preexisting antibodies to the selected peptides.
Evaluation of serum collected from immunized dogs for anti-ZP-binding peptide antibodies: Serum samples were collected from all dogs prior to immunization and biweekly or monthly thereafter during a 12-month period. The samples were tested for the presence of anti-peptide antibodies in a peptide ELISA format. […] The immunization scheme was as described above.

[3] = system: canine sperm cells; test: Sperm cell ELISA of serum from dogs immunized with antigen 4; type: in vivo; conditions: three dogs immunized with antigen 4; sperm cell ELISA at serum dilution 1:50 (FIG. 5)

Row | Substance | binding to ZP (peptide sequences of phage selected on intact dog oocytes) [1] | other results
1 | SSWYRGA (Phage library random peptide insert) [SEQ ID NO:3] | responsible for binding to ZP | 
2 | LSTALRS (Phage library random peptide insert) [SEQ ID NO:2] | responsible for binding to ZP | 
3 | NNQSPILKLSIH-GG (NNQSPILKLSIHGG; also: conjugated to carrier protein) [antigen 4] |  | immunogenicity: anti-peptide antibody levels in serum ([2]; one dog per antigen, 250 μg KLH conjugated peptide with aluminum hydroxide adjuvant and CpG, intramuscular, two boosts, peptide ELISA at serum dilution 1:6400 (FIG. 3)): specific anti-peptide antibodies at high levels; also recorded: high immunogenic properties; titers of anti-peptide antibodies ([2]; three additional dogs, same immunization scheme, peptide ELISA at serum dilution 1:6400 (FIG. 4)): high titers of anti-peptide antibodies; binding of raised antibodies to canine sperm cells (anti-sperm antibody levels) [3]: bind to canine sperm cells
4 | LNSFLRS (Phage library random peptide insert) [SEQ ID NO:1] | responsible for binding to ZP | 
5 | YLPIYTIPSMVY (Phage library random peptide insert) [SEQ ID NO:5] | responsible for binding to ZP | 
6 | NNQSPILKLSIH (Phage library random peptide insert) [SEQ ID NO:6] | responsible for binding to ZP | 
7 | TGTSTRA (Phage library random peptide insert) [SEQ ID NO:4] | responsible for binding to ZP | 
8 | AHPNTAPIHPKF (Phage library random peptide insert) [SEQ ID NO:7] | responsible for binding to ZP | 
